# Assay results from the supplement of paper PMC10307832.
# Key:
# Test in all cases: relative viability (nuclei count vs DMSO), 5 days (fraction); higher = more cells survive
# Doxorubicin + Vorinostat = compound: COc1cccc2c1C(=O)c1c(O)c3c(c(O)c1C2=O)C[C@@](O)(C(=O)CO)C[C@@H]3O[C@H]1C[C@H](N)[C@H](O)[C@H](C)O1 [Doxorubicin] + O=C(CCCCCCC(=O)Nc1ccccc1)NO [Vorinostat] (partner 1 µM)
# Procedure, shortened: (§1)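 Lung cancer cell lines in 1536-well plates got either a single drug or a fixed anchor-drug dose together with five library-drug doses (not always all listed) in √10 steps, by pin tool, on the day after seeding. Nuclei were counted after 5 days, and relative viability is the treated-to-vehicle ratio of nuclei counts. Values are medians of duplicate plates.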
# Doxorubicin + OSI-027 = compound: COc1cccc2c1C(=O)c1c(O)c3c(c(O)c1C2=O)C[C@@](O)(C(=O)CO)C[C@@H]3O[C@H]1C[C@H](N)[C@H](O)[C@H](C)O1 [Doxorubicin] + COc1cccc2cc(-c3nc([C@H]4CC[C@H](C(=O)O)CC4)n4ncnc(N)c34)[nH]c12 [OSI-027] (partner 0.5 µM)
# Procedure, shortened: as §1
# Doxorubicin + Linsitinib = compound: COc1cccc2c1C(=O)c1c(O)c3c(c(O)c1C2=O)C[C@@](O)(C(=O)CO)C[C@@H]3O[C@H]1C[C@H](N)[C@H](O)[C@H](C)O1 [Doxorubicin] + C[C@]1(O)C[C@@H](c2nc(-c3ccc4ccc(-c5ccccc5)nc4c3)c3c(N)nccn32)C1 [Linsitinib] (partner 1 µM)
# Procedure, shortened: as §1
# Doxorubicin + Alpelisib = compound: COc1cccc2c1C(=O)c1c(O)c3c(c(O)c1C2=O)C[C@@](O)(C(=O)CO)C[C@@H]3O[C@H]1C[C@H](N)[C@H](O)[C@H](C)O1 [Doxorubicin] + Cc1nc(NC(=O)N2CCC[C@H]2C(N)=O)sc1-c1ccnc(C(C)(C)C(F)(F)F)c1 [Alpelisib] (partner 2 µM)
# Procedure, shortened: as §1
Cell Line,relative viability (Doxorubicin + Vorinostat; first compound 0.001 µM),relative viability (Doxorubicin + Vorinostat; first compound 0.003162 µM),relative viability (Doxorubicin + Vorinostat; first compound 0.01 µM),relative viability (Doxorubicin + Vorinostat; first compound 0.03162 µM),relative viability (Doxorubicin + Vorinostat; first compound 0.1 µM),relative viability (Doxorubicin + OSI-027; first compound 0.001 µM),relative viability (Doxorubicin + OSI-027; first compound 0.003162 µM),relative viability (Doxorubicin + OSI-027; first compound 0.01 µM),relative viability (Doxorubicin + OSI-027; first compound 0.03162 µM),relative viability (Doxorubicin + OSI-027; first compound 0.1 µM),relative viability (Doxorubicin + Linsitinib; first compound 0.001 µM),relative viability (Doxorubicin + Linsitinib; first compound 0.003162 µM),relative viability (Doxorubicin + Linsitinib; first compound 0.01 µM),relative viability (Doxorubicin + Linsitinib; first compound 0.03162 µM),relative viability (Doxorubicin + Linsitinib; first compound 0.1 µM),relative viability (Doxorubicin + Alpelisib; first compound 0.001 µM),relative viability (Doxorubicin + Alpelisib; first compound 0.003162 µM),relative viability (Doxorubicin + Alpelisib; first compound 0.01 µM),relative viability (Doxorubicin + Alpelisib; first compound 0.03162 µM),relative viability (Doxorubicin + Alpelisib; first compound 0.1 µM)
NCI-H2342,0.757,0.845,0.692,0.535,0.696,0.628,0.563,0.597,0.59,0.609,–,–,–,–,–,–,–,–,–,–
HCC-15,0.888,0.847,0.818,0.736,0.747,–,0.677,0.635,0.284,0.136,0.878,0.842,0.927,0.795,0.725,0.85,0.939,0.633,0.727,0.573
A-427,0.913,0.884,0.847,0.647,0.351,0.427,0.506,0.429,0.43,0.442,1.11,1.15,1.11,1.17,1.16,1.11,1.09,1.09,1.09,1.15
NCI-H2347,0.588,0.539,0.45,0.49,0.476,0.469,0.405,0.433,0.523,0.35,0.978,0.923,0.923,0.889,0.959,0.985,0.935,0.997,0.899,1.02
NCI-H1755,0.78,0.749,0.716,0.788,0.827,0.631,0.711,0.747,0.721,0.704,0.971,0.98,1.02,1.05,1.01,0.918,0.992,0.719,0.947,0.94
SK-LU-1,0.719,0.87,0.674,0.494,0.461,0.359,0.297,0.28,0.224,0.173,1.1,1.23,0.891,0.435,0.43,1.03,0.995,0.783,0.46,0.322
NCI-H1975,0.731,0.735,0.678,0.679,0.531,0.637,0.715,0.685,0.497,0.256,1.09,1.02,0.845,0.572,0.464,0.64,0.597,0.625,0.334,0.232
NCI-H1703,–,–,–,–,–,–,–,–,–,–,0.481,0.676,0.695,0.64,0.474,0.335,0.293,0.365,0.214,0.201
HCC-44,1.1,1.15,1.1,1.12,1.12,0.35,0.575,0.63,0.381,0.322,0.686,0.667,0.621,0.69,0.753,0.823,0.801,0.751,0.78,0.93
